Laboratory results published in the kinase profiling compilation of Christmann-Franck et al. (2016).
“And” between values parts separate entries of the source, which are not always exact repeats. Identical values can stand only once.

What was measured:
Assay in all cases: radiometric filter-binding kinase assay, Kinase HotSpot
Details in all cases: compound 0.5 µM; ATP 10 µM
[1] = biological target: SRPK3 (human) (UniProt Q9UPE1)
[2] = biological target: EPHB2 (human) (UniProt P29323)
[3] = biological target: IRAK4 (human) (UniProt Q9NWZ3)
[4] = biological target: FLT1 (human) (UniProt P17948)
[5] = biological target: CSNK1D (human) (UniProt P48730)
[6] = biological target: JAK2 JH1 JH2 (human) (UniProt O60674)
[7] = biological target: MAP3K14 (human) (UniProt Q99558)
[8] = biological target: ABL1 (human) (UniProt P00519)
[9] = biological target: INSRR (human) (UniProt P14616)
[10] = biological target: ERBB2 (human) (UniProt P04626)
[11] = biological target: NLK (human) (UniProt Q9UBE8)
[12] = biological target: MLTK (human) (UniProt Q9NYL2)
[13] = biological target: MAPK9 (human) (UniProt P45984)
[14] = biological target: PRKCA (human) (UniProt P17252)
[15] = biological target: MINK1 (human) (UniProt Q8N4C8)
[16] = biological target: MKNK2 (human) (UniProt Q9HBH9)
[17] = biological target: ABL2 (human) (UniProt P42684)
[18] = biological target: IGF1R (human) (UniProt P08069)
[19] = biological target: CDK9 CCNK (human) (UniProt O75909+P50750)
[20] = biological target: PHKG2 (human) (UniProt P15735)
[21] = biological target: PRKX (human) (UniProt P51817)
[22] = biological target: CLK3 (human) (UniProt P49761)
[23] = biological target: DSTYK (human) (UniProt Q6XUX3)
[24] = biological target: CSNK1E (human) (UniProt P49674)
[25] = biological target: CSK (human) (UniProt P41240)
[26] = biological target: PKN1 (human) (UniProt Q16512)
[27] = biological target: SYK (human) (UniProt P43405)
[28] = biological target: MARK3 (human) (UniProt P27448)
[29] = biological target: CDK5 CDK5R1 p25 (human) (UniProt Q00535+Q15078)
[30] = biological target: HIPK3 (human) (UniProt Q9H422)
[31] = biological target: ULK2 (human) (UniProt Q8IYT8)
[32] = biological target: MAPKAPK3 (human) (UniProt Q16644)
[33] = biological target: MAP3K2 (human) (UniProt Q9Y2U5)
[34] = biological target: PRKG1 (human) (UniProt Q13976)
[35] = biological target: EPHA7 (human) (UniProt Q15375)
[36] = biological target: MST4 (human) (UniProt Q9P289)
[37] = biological target: NEK6 (human) (UniProt Q9HC98)
[38] = biological target: BRSK1 (human) (UniProt Q8TDC3)
[39] = biological target: PAK7 (human) (UniProt Q9P286)
[40] = biological target: CAMKK2 (human) (UniProt Q96RR4)
[41] = biological target: DYRK1B (human) (UniProt Q9Y463)
[42] = biological target: FES (human) (UniProt P07332)

Chain of PRKG1 (human) (Q13976 whole entry, looked up): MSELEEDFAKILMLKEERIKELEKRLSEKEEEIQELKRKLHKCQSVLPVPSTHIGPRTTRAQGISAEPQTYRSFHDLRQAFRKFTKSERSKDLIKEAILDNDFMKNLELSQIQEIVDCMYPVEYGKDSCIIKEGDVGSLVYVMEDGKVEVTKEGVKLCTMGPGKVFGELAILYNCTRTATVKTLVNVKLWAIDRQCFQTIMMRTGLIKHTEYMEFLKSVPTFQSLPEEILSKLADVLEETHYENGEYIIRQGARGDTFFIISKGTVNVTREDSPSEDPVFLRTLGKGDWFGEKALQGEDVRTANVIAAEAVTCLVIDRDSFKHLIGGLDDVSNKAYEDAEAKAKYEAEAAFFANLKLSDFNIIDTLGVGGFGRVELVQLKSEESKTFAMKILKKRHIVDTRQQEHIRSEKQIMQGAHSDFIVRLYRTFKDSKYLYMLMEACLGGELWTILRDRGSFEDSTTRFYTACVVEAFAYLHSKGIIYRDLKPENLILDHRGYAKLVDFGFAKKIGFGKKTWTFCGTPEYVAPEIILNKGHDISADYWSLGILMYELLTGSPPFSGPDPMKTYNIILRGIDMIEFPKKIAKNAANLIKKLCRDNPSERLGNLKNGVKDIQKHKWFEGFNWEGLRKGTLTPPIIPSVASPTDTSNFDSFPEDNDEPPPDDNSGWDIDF
Chain of PRKX (human) (P51817 whole entry, looked up): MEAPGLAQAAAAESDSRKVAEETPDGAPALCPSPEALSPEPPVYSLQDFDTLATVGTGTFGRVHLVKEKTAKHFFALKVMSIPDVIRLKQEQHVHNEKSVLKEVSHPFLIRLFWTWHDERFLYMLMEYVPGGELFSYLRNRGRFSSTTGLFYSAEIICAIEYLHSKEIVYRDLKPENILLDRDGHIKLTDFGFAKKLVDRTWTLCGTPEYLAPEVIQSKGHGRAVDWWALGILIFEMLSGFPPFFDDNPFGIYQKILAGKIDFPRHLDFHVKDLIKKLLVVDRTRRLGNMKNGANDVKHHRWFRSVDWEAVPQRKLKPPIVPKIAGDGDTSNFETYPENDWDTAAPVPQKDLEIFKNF
Chain of CDK5 CDK5R1 p25 (human) (Q00535 whole entry, looked up): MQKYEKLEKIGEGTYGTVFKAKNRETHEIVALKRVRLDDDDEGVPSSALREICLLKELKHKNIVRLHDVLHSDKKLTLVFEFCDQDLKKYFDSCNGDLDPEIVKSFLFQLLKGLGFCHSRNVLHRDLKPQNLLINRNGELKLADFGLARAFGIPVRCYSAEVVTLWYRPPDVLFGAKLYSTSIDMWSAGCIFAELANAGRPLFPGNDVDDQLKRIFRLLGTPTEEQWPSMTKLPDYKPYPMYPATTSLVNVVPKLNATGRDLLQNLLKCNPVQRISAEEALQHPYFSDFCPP
Chain of CDK5 CDK5R1 p25 (human) (Q15078 whole entry, looked up): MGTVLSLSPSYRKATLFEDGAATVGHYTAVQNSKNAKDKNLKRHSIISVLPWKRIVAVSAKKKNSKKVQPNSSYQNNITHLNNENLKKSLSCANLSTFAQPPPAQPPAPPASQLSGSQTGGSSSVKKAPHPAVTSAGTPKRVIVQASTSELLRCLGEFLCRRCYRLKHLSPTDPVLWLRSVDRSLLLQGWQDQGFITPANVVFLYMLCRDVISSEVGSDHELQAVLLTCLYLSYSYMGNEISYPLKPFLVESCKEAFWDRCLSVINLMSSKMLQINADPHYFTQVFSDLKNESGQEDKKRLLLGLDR
Chain of PKN1 (human) (Q16512 whole entry, looked up): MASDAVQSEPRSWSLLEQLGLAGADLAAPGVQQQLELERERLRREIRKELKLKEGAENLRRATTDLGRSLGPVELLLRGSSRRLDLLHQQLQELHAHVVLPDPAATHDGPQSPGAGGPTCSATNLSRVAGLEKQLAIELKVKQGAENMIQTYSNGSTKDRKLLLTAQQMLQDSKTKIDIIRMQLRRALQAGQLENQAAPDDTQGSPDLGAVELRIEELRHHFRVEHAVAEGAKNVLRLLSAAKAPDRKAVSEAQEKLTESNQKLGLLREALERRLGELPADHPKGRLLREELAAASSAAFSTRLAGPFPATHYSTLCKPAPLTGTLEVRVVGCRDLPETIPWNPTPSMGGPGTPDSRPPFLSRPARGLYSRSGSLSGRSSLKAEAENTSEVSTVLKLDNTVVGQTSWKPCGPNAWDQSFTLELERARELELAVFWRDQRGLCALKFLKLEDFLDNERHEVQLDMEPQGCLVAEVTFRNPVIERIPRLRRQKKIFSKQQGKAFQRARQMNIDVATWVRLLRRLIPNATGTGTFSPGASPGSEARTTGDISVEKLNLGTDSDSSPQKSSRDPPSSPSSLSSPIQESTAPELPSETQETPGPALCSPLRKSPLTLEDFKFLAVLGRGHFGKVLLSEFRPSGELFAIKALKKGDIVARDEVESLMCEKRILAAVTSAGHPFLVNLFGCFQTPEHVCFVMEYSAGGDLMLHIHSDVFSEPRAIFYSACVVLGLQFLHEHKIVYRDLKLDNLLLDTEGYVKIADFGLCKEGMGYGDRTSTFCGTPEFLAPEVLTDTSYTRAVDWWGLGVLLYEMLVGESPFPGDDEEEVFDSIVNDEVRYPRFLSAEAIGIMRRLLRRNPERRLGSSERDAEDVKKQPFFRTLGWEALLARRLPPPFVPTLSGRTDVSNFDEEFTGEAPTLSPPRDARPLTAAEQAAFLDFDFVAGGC
Chain of MAP3K14 (human) (Q99558 whole entry, looked up): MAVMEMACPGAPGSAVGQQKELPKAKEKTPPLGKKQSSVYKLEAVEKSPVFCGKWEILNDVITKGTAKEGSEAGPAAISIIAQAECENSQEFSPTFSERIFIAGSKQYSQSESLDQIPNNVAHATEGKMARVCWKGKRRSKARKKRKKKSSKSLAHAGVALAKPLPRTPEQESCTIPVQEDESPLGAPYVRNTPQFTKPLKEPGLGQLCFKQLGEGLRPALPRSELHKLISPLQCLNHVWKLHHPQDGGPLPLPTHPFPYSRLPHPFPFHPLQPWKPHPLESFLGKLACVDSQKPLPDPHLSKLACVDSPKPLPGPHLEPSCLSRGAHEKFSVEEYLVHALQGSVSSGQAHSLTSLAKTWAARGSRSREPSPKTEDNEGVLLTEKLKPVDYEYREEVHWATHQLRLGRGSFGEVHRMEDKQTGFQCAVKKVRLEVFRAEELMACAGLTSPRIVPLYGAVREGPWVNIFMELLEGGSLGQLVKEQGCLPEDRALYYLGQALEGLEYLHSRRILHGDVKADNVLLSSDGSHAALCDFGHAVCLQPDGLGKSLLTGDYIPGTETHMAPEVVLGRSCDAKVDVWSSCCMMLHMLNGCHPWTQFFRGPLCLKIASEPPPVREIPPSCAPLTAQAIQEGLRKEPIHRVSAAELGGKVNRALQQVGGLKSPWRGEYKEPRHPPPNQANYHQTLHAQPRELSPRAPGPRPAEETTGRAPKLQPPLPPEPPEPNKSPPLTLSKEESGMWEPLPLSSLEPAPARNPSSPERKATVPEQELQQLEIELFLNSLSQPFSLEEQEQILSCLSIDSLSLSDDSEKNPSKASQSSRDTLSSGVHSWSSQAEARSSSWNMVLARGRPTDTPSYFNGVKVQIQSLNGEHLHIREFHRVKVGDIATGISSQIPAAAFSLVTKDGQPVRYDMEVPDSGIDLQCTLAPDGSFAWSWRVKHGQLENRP
Chain of FLT1 (human) (P17948 whole entry, looked up): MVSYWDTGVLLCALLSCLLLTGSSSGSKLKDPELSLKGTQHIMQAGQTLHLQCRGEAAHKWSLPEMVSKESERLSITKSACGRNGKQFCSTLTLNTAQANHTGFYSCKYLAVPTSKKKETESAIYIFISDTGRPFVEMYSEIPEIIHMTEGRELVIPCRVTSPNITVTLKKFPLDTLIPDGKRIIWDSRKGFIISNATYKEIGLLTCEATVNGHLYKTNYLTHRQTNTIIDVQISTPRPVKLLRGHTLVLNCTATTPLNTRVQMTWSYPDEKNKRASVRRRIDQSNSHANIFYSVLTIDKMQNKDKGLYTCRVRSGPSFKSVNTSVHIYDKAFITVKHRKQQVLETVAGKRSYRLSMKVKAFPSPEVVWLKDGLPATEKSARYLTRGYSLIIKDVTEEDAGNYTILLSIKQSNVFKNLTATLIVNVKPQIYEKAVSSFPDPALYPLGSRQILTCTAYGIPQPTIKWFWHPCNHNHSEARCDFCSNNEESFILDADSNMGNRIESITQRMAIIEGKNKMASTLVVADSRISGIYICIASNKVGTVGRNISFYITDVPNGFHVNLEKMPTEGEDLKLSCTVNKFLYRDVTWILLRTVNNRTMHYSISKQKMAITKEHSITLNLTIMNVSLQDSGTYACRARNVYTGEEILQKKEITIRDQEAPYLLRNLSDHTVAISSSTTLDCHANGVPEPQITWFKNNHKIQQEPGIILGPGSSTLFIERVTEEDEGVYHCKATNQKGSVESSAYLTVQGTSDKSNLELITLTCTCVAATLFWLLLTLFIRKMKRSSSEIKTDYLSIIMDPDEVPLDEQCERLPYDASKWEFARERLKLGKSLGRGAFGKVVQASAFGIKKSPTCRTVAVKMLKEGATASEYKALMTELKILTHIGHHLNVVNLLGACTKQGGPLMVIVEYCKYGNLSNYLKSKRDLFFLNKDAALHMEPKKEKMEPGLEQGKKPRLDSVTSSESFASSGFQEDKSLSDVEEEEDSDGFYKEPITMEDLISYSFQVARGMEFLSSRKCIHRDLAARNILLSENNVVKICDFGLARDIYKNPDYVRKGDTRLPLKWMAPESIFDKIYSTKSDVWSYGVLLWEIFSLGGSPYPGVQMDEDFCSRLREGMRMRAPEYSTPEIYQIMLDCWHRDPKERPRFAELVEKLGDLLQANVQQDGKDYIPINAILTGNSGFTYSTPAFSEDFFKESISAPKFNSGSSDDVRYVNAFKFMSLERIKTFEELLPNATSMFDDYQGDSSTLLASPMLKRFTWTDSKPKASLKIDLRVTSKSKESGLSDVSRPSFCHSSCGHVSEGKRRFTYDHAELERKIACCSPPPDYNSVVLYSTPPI

O=C(c1ccccc1)c1ccc(N2CCOCC2)cc1O
residual activity [1]: 103%
residual activity [2]: 94.9%
residual activity [3]: 108%
residual activity [4]: 97.4%
residual activity [5]: 100%
residual activity [6]: 94.1%
residual activity [7]: 75.1%
residual activity [8]: 102%
residual activity [9]: 97.6%
residual activity [10]: 94.8%
residual activity [11]: 97.3%
residual activity [12]: 95%
residual activity [13]: 98.9%
residual activity [14]: 84.2%
residual activity [15]: 91.1%
residual activity [16]: 90.6%
residual activity [17]: 105%
residual activity [18]: 106%
residual activity [19]: 97.8%
residual activity [20]: 101%
residual activity [21]: 109%
residual activity [22]: 90.2%
residual activity [23]: 86.2%
residual activity [24]: 97.7%
residual activity [25]: 101%
residual activity [26]: 104%
residual activity [27]: 96.6%
residual activity [28]: 105%
residual activity [29]: 98.8%
residual activity [30]: 98.1%
residual activity [31]: 96.7%
residual activity [32]: 106%
residual activity [33]: 102%
residual activity [34]: 86.8% and 96.4%
residual activity [35]: 98.4%
residual activity [36]: 101%
residual activity [37]: 95%
residual activity [38]: 103%
residual activity [39]: 99.2%
residual activity [40]: 111%
residual activity [41]: 105%
residual activity [42]: 95.2%
